Data on 1 compound can be found in patent US10959968B2, “Methods for treating c-Met-dependent cancers” (Board of Supervisors of Louisiana State University and …, priority 2016, dated 2021).

For assay [1], the system named is MDA-MB-231 human breast cancer cells. The assay can be described thus: Cultrex BME cell invasion assay, HGF-induced. The assay is classed as cell-based. The conditions noted are these: 24 h treatment. On the procedure:
FIG. 6. (A) Effect of HVS on HGF-induced migration of the highly metastatic MDA-MB-231 human breast cancer cells in wound healing assay. […] Vertical bars indicate the percentage of wound closure at 24 h after wounding, calculated relative to the wound distance at zero time±SEM of N=6 in each treatment group. SU11274 and (−)-oleocanthal were used as positive controls at 10 μM. Right panel represents photomicrographs of wound healing assay showing HVS treatment at three different concentrations (1.25, 2.5, and 5 μM) blocked the migration of MDA-MB-231 cells in response to HGF stimulation, as compared to DMSO as a vehicle control. (B) Effect of HVS on HGF-induced cell invasion of the highly aggressive MDA-MB-231 human breast cancer cells using Cultrex® BME cell invasion assay. The cells were treated with different concentrations of HVS for 24 h. Vertical bars indicate the percentage of cells invading the basement membrane at the end of treatment period±SEM of N=3 in each treatment group. (−)-Oleocanthal was used as a positive control at 20 μM dose.*P<0.05 as compared with vehicle-treated control. (C) Effect of HVS on HGF-induced scattering of the DU145 human prostate cancer cells in 2D monolayer cultures, compared to DMSO as vehicle control. Cells were treated with indicated concentrations of HVS for 30 minutes in serum-free media. […]

The subject of assay [2] is MDA-MB231 spheroids. The assay can be described thus: 3D spheroid growth, IncuCyte. The assay is classed as cell-based, human. To be noted: Homo sapiens, MDA-MB-231, 10 micromolar, up to 72 hours. The protocol:
FIG. 9. (A). MDA-MB231 cells were grown in 10% FBS DMEM. Cells were collected after trypsinization and resuspended in phenol-red free DMEM with 10% FBS. Cells were labeled with CellTracker Red (Life Technologies) for 5 minutes. After labeling cells were washed with PBS and transfer into 96-well Corning 7007 ULA round bottom plates at 1,000 cells/well in 100 μl phenol-red free media with 10% FBS and 5% Matrigel. […] Spheroids were grown at 37° C. and 5% CO2 in IncuCyte ZOOM (Essen Bioscience). Images were acquired every 4 h for a period of 72 h post-treatment. The data were expressed as fold increase in spheroids size at the end of the treatment using the “average red object area in the well” as determined by the IncuCyte software analysis.
MDA-MB231 spheroids were all allowed to form and treated with compounds for up to 72 hours. Images were captured using the Incucyte platform.

Assay [3] addresses MST1R (RON0 (Homo sapiens, UniProt Q04912)). Kind of assay: SelectScreen Kinase Profiling. It is filed as biochemical. To be noted: read-out: Mean inhibition at 10 μM of HVS (%).
The test system of assay [4] is T-47D breast cancer cells. Kind of assay: HGF-stimulated growth of Met-independent cells, MTT assay. To be noted: similar treatment doses; 72 h. It is filed as cell-based, human. On the procedure:
FIG. 3. (A) Effect of HVS treatment on HGF-stimulated growth of Met-dependent MDA-MB-231, MDA-MB-468, MCF-7. and BT-474 breast cancer cells after 72 h treatment period, compared to DMSO as vehicle control. Viable cell count was determined using MTT assay. Vertical bars indicate the mean cell count±SEM of N=3 in each treatment group; (−)-oleocanthal was used as a positive control at 20 μM. (B) Effect of HVS treatment on HGF-stimulated growth of Met-independent T-47D breast cancer cells after 72 h treatment period. Viable cell count was determined using MTT assay. Vertical bars indicate the mean cell count±SEM of N=3 in each treatment group. (C) Cytotoxic effects of HVS on the highly metastatic MDA-MB-231 breast cancer cells at two different concentrations (30 and 60 μM) using LDH cytotoxicity assay. Triton X-100 was used as a positive control to cause the breakdown of all the cells and induce the total possible LDH release. (D) Effects of HVS treatment on the viability of non-tumorigenic human MCF10A mammary epithelial cells after a 24 h treatment period, compared to DMSO as vehicle control. (E) As in panel (A) but without HGF. […] Viable cell count was determined using MTT assay. Vertical bars indicate the mean cell count±SEM of N=3 in each treatment group; doxorubicin was used as a positive control at 10 μM dose. *P<0.05 as compared with vehicle treated control.
[…]. […]
For orientation: Formazan colour is commonly taken as a measure of viable cells.

In assay [5] the test system is DU145 human prostate cancer cells (pMet, pAkt, pErk). The assay can be described thus: Western blot of HGF-induced signaling in prostate cancer cells. The assay is classed as cell-based. To be noted: 30 min pretreatment, 30 min HGF. The protocol: FIG. 4. A) Effect of HVS treatment on HGF-induced c-Met activation in human breast cancer cells using Western Blot analysis. Treatment with HVS caused a significant, dose-responsive inhibition of HGF-induced c-Met phosphorylation in MDA-MB-231, MCF-7, and BT-474 mammary tumor cells with no effect on total c-Met levels after treatment for 72 h, as compared to their respective vehicle-treated control groups. The visualization of β-tubulin was used as a loading control. (B) Effect of HVS on HGF-induced c-Met activation and its downstream mitogenic signaling in DU145 human prostate cancer cells, as compared to vehicle-treated control group, using Western Blot analysis. Cells were pre-treated for 30 minutes with either HVS at 0.1, 0.3, 1, and 5 μM or (−)-oleocanthal at 5, 10, and 20 μM doses in serum-free 0.4-media. 33 ng/mL HGF was then added for 30 minutes. Whole cell lysates were collected and assayed by Western Blot. The visualization of α-tubulin was used as a loading control. Representative Western Blots from each experiment are shown, N=3.
DU145 prostate tumor cells were pretreated for 30 minutes with the indicated compounds. Following pretreatment, cells were pulsed for thirty minutes with HGF, cell lysates were prepared and western blot analysis was performed to identify pMet, pAkt, pErk and tubulin.

Sequence of MST1R (RON0 (Q04912 25-1400): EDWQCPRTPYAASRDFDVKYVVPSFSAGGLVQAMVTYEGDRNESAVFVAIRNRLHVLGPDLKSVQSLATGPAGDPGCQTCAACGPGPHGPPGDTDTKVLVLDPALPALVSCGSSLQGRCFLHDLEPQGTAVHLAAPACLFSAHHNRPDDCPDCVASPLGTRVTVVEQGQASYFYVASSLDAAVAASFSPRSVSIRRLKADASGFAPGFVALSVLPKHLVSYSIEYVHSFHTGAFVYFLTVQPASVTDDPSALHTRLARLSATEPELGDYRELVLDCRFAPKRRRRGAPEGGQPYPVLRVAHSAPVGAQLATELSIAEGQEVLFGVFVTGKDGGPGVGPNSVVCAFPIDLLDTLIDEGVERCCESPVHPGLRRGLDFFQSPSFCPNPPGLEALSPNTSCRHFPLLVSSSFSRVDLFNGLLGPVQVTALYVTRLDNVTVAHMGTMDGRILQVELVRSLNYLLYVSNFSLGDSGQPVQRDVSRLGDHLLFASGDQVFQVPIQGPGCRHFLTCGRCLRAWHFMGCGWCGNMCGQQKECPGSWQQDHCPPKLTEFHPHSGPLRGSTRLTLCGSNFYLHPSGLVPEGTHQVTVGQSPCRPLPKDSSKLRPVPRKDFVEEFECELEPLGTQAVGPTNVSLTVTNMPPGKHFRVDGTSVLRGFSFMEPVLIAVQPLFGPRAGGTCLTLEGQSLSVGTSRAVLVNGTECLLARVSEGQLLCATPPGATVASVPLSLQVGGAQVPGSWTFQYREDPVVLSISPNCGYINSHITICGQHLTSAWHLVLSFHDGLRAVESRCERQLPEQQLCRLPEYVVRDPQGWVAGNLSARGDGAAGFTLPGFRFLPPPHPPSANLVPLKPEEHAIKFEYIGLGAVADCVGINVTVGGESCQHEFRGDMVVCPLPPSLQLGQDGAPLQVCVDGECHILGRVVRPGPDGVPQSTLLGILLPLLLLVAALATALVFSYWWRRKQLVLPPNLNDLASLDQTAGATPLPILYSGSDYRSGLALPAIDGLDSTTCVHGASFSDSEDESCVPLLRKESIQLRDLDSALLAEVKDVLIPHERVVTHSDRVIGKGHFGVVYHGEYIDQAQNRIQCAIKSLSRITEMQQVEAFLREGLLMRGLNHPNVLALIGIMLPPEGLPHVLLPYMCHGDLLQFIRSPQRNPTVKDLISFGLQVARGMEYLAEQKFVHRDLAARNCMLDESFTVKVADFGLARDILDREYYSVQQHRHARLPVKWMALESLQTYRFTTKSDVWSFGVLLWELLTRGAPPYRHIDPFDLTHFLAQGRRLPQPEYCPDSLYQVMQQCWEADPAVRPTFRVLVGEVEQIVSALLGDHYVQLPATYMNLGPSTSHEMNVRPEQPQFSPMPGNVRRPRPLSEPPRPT

What is called inhibition is the change of the read-out against control, counted positive when it falls. Consider `COc1cc(CCOC(=O)/C=C/c2cc(OC)c(O)c(OC)c2)ccc1O` [Compound 8, (E)-4-hydroxy-3-methoxyph-ethyl 3-(4-hydroxy-3,5-dimethoxyphenyl) acrylate], for which the HGF-induced invasion result in assay [1] is “appears to inhibit”. Besides, the inhibition at 10 µM is 80% in assay [2] and 15% in assay [3]. In addition, the “effect on T47-D cells which lack c-Met” value in assay [4] is “no discernable effects”. The “HGF-induced (Met dependent) signaling” value in assay [5] is reported as “effective even at submicromolar concentrations”.
